Like-named read-outs stand apart in the source and are kept apart here. Where a SMILES comes first, the peptide text is derived from it. Bridges are numbered along the chain shown (N, C = ends). Where no end group is shown, it is not given here. [ ]: non-standard residue; d: D form. R8 = C=CCCCCCC[C@@](C)(N)C(=O)O; S5 = C=CCCC[C@](C)(N)C(=O)O
How the values were obtained:
[1] = not told; cited from earlier work
Excerpt: In 2005, a 12-mer peptide (CAI), identified by phage-display, was reported to disrupt both immature- and mature-like particles in vitro by targeting the C-terminal domain (CTD) of HIV-1 CA [21]. […] Subsequently, we converted CAI to a cell-penetrating peptide (NYAD-1) by using a hydrocarbon stapling technique and confirmed its binding to the CTD [24]. NYAD-1, which is an i,i + 4 staple peptide, disrupts the formation of both immature- and mature-like particles in cell-free and cell-based assembly s ... || We previously reported that an i,i + 4 stapled peptide, NYAD-1, penetrates cells and disrupts virus assembly in both in vitro and cell-based assays. […] In addition, direct binding analyses by ITC and NMR confirmed that NYAD-1 binds to the CTD of CA. These findings motivated us to expand the scope of our drug discovery effort on hydrocarbon-stapled peptides as assembly and maturation inhibitors to an i,i + 7 series of stapled peptides. This approach allowed us to explore res ...

HIV-1 CA [2] = biological target: T1, HIV-1 CA (Human immunodeficiency virus type 1 group M subtype B, UniProt P12493); assay: In vitro CA assembly, negative-stain electron microscopy; assay type: biochemical; details: 50 μΜ CA, 0.25- to 3.0-fold molar equivalent of peptide
T1 construct: Wild-type HIV-1 CA was overexpressed and purified as previously described; made in house
Procedure: Briefly, stock proteins were adjusted to the appropriate concentration (25 μΜ for Gag protein or 50 μΜ for CA protein) with the Na2HPO4 buffer at pH 8.0. […] Negative staining was used to check the assembly. Carbon-coated copper grids (200 mesh size; EM Sciences) were treated with 20 μl of poly-L-lysine (1 mg/ml; Sigma) for 2 min. 20 μl of reaction solution was placed onto the grid for 2 min. Spotted grids were then stained with 30 μl of uranyl acetate solution for 2 min. Excess stain was removed, and grids were air-dried. Specimens were examined with a TECNAI G^2 electron microscope (FEI, OR, USA).

HIV-1 CA [3] = biological target: T1, HIV-1 CA; assay: Turbidity-based in vitro CA assembly assay; assay type: biochemical; details: turbidity at 350 nm; for Effect on CA assembly, turbidity (in words): 50 mM NaPO4 pH 8.0; for initial rate of CA assembly: compound:CA ratio 2:1, mean ± standard deviation from three experiments, DMSO control 216 ± 6.23
Procedure: The ability of stapled peptides to disrupt CA-CA interactions was also assessed using a turbidity-based in vitro CA assembly assay. This assay is based on the observation that the turbidity of a CA-containing solution increases in proportion to the extent of assembly.
Wild-type HIV-1 CA was overexpressed and purified as previously described. […] Turbidity assays were carried out in triplicate using a Beckman spectrophotometer at a wavelength of 350 nm to monitor HIV-1 in vitro assembly conducted at ambient temperatures. Protein samples were prepared in an assembly buffer [50 mM NaPO4 pH 8.0]. In vitro assembly reactions were prepared with 250 μl of assembly buffer containing 60 μM protein. To catalyze CA assembly 250 μl of an assembly buffer containing 5M NaCl was added. The solution was mixed by agitation and transferred a cuvette for a total delay of 20 seconds. Assembly was monitored every 10 sec for the first min and every min thereafter for a total 10 min. Assembly reactions with stapled peptides were incubated in the assembly buffer for 10 min and then centrifuged for 1 min to separate any insoluble fractions before catalyzing assembly.

HIV-1 pNL4-3 = assay: Virus assembly and release assay, Gag processing; assay type: cell-based; details: 293T cells transfected with pNL4-3, peptide for 16–20 h, ratio of Pr55Gag to p24
Procedure: This inhibition was specific to HIV-1 as the release of another lentivirus, equine infectious anemia virus (EIAV), was not inhibited. In this study we investigated whether i,i + 7 stapled CAI-derived peptides have any effect on virus release. 293T cells were transfected with the full-length HIV-1 molecular clone pNL4-3, treated with stapled peptides for 16–20 h, and metabolically labeled with [^35S]Met/Cys. The cell- and virus-associated proteins were immunoprecipitated with HIV-Ig.
Figure 6 i + 7 stapled peptides have no effect on HIV-1 release, but impair Gag processing. […] Cells were metabolically labeled with [^35S]Met/Cys for 2 h. Cells were lysed and virions were collected by ultracentrifugation. Cell and virus lysates were immunoprecipitated with HIV-Ig and subjected to SDS-PAGE. Protein band intensities were quantified by phosphorimager analysis, and HIV-1 release was calculated as the amount of virion-associated p24 relative to total (cell- plus virion-associated) Gag. (b) Accumulation of unprocessed Gag in cells was measured by calculating the ratio of Pr55^Gag to p24 in cells. P values were calculated by Student’s t-test, with P < 0.05 considered significant. N = 3, ± SD.
293T cells, plated at 3 × 10^5 cells/well in 12 well plates, were transfected with the HIV-1 molecular clone pNL4-3 [69]. […] One day posttransfection, cells were metabolically labeled with [^35S]Met/Cys for 2 h. The labeled virions were pelleted in an ultracentrifuge, and the virus and cell lysates were immunoprecipitated with pooled sera from HIV-1-infected patients (HIV-Ig, obtained from the ARP) and subjected to SDS-PAGE. Protein band intensities were quantified by phosphorimager analysis, and virus release was calculated as the amount of virion-associated Gag as a fraction of total (cell- plus virion-associated) Gag synthesized during the metabolic labeling period. Accumulation of Pr55^Gag in cells was measured by calculating the ratio of Pr55^Gag to p24 (CA).

HIV-1 pNL4-3 (WT) = assay type: cell-based
WT HIV-1 (NL4-3) = assay type: cell-based
[4] = test system: HIV-1 V120Q/A327P Env mutant; assay type: cell-based
WT NL4-3 [5] = assay: Spreading virus replication in Jurkat T-cell line, RT activity, WT; assay type: cell-based, HIV-1
WT NL4-3 [6] = assay: Virus replication in PBMC, WT; assay type: cell-based, HIV-1; details: PBMC from three donors, 30 μM peptide, RT activity
V120Q/A327P mutant = assay: Virus replication in PBMC, Env mutant; assay type: cell-based, HIV-1; details: PBMC from three donors, 30 μM peptide, RT activity
[7] = test system: N-terminal and C-terminal V3 loop peptides; assay: ITC binding to N-terminal and C-terminal V3 loop peptides; set-up: species or system HIV-1; details: overlapping 15-mer V3 peptides
Procedure: (§1) We also used ITC to measure the binding affinity of the stapled peptides to full-length cyclic V3 loop peptide.
(§2) Full-length V3 peptide (Cat# 1840), cyclic V3 peptide (Cat# 1837) and 15-mer overlapping V3 peptides (Cat# 1832, 6282, 6283, 6284, 6285, 6287, 6288, 6289, 6290 and 6291, for amino acid sequence see HIV-1 Subtype B (MN) Env Peptides - Complete Set Cat# 6451) were obtained through the NIH ARP.
(§3) For forward titration, 90 μM full-length V3 peptide, full-length cyclic V3 peptide or 90 μM 15-mer V3 peptides were titrated into 4.5 μM of stapled or linear peptides. Reference measurements were performed by titrating 90 μM full-length V3 peptide, full-length cyclic V3 peptide or 15-mer V3 peptide into buffer without peptide. For reverse titration, 90 μM stapled peptide was titrated into 4.5 μM full-length V3 peptide, full-length cyclic V3 peptide or […]. Reference measurements were performed by titrating 90 μM stapled peptide into buffer without peptide.

[8] = biological target: tip of V3 loop (15-mer V3 tip peptide); assay: ITC binding to 15-mer V3 tip peptide; set-up: species or system HIV-1; details: 90 μM 15-mer V3 tip peptide titrated into 4.5 μM peptide, single-site model
Procedure: as §1, §2, §3

[9] = Jurkat cells transfected with pNL4-3 (WT), 37.5 μM peptide
[10] = 50 μM peptide during 2 h infection, TZM-bl cells, luciferase two days post-infection

Compound	CC 50 (μM ± SD) in MT-2 (MT-2 cells) [µM]	Effect on CA assembly, turbidity (in words) (HIV-1 CA [3])	initial rate of CA assembly (HIV-1 CA [3]) [mOD/min]	Accumulation of cell-associated Pr55Gag (in words) (HIV-1 pNL4-3)	reduction in infectivity of virions produced from treated cells (HIV-1 pNL4-3 (WT))	fold reduction of virus infectivity, WT (WT HIV-1 (NL4-3)) [fold]	fold reduction of virus infectivity, V120Q/A327P double mutant [4]	virus replication (in words) (WT NL4-3 [5]; [9])	virus replication (in words) (WT NL4-3 [6])	virus replication (in words) (V120Q/A327P mutant)	binding to N-terminal and C-terminal V3 loop peptides (in words) [7]	Kd [8] [µM]	Cell penetration (in words) (293T cells)	% toxicity at that dose (number in parenthesis) (MT-2 cells) [%]	further results
ITFEDLLDYYGP-NH2 [CAI, reference compound]	>100														cell permeability (in words) [1]: lack of cell permeability
CC[C@H](C)[C@H](NC(C)=O)C(=O)N[C@@H](CO)C(=O)N[C@@H](Cc1ccccc1)C(=O)N[C@]1(C)CCCCCCC=CCCC[C@@](C)(C(=O)N[C@@H](CCC(=O)O)C(=O)N[C@@H](CO)C(=O)NCC(=O)N[C@@H](CO)C(N)=O)NC(=O)[C@H](Cc2ccc(O)cc2)NC(=O)[C@H](Cc2ccc(O)cc2)NC(=O)[C@H](CC(=O)O)NC(=O)[C@H](CC(C)C)NC(=O)[C@H](CC(C)C)NC(=O)[C@H](CCC(=O)O)NC1=O [NYAD-36] (Ac-ISF[R8]ELLDYY[S5]ESGS-NH2; staple 4-11)	>189.4	reduced the extent of CA assembly in a dose-dependent manner	158 ± 24.71	modest accumulation of cell-associated Pr55^Gag	four-fold	> 10	~ 2.5 fold	significantly delayed	strongly inhibited replication of WT NL4-3 in PBMC	showed some antiviral activity against the V120Q/A327P mutant	neither N-terminal nor C-terminal V3 loop peptides bind	15.1 ± 3.78	penetrate cells less efficiently than NYAD-1		Effect on CA tube assembly, EM (in words) (HIV-1 CA [2]): either severely damaged or disintegrated; virus replication (in words) (WT NL4-3 [5]; Jurkat cells transfected with pNL4-3, 25 μM peptide): virus replication peaked approximately six days posttransfection; virus replication (in words) (WT NL4-3 [5]; Jurkat cells transfected with pNL4-3, 50 μM peptide): no replication was detected
CC[C@H](C)[C@H](NC(C)=O)C(=O)N[C@@H](CO)C(=O)N[C@@H](Cc1ccccc1)C(=O)N[C@]1(C)CCCCCCC=CCCC[C@@](C)(C(=O)N[C@@H](CCC(=O)O)C(=O)N[C@@H](CC(=O)O)C(=O)N[C@@H](CCC(=O)O)C(N)=O)NC(=O)[C@H](Cc2ccc(O)cc2)NC(=O)[C@H](C)NC(=O)[C@H](CCC(N)=O)NC(=O)[C@H](CC(C)C)NC(=O)[C@H](Cc2c[nH]c3ccccc23)NC(=O)[C@H](CCC(=O)O)NC1=O [NYAD-67] (Ac-ISF[R8]EWLQAY[S5]EDE-NH2; staple 4-11)	> 107.4	did not influence the rate or extent of CA assembly	205 ± 18.89	modest accumulation of cell-associated Pr55^Gag	two-log reduction in infectivity	> 40	~ 2.5 fold	completely blocked	strongly inhibited replication of WT NL4-3 in PBMC	showed some antiviral activity against the V120Q/A327P mutant	neither N-terminal nor C-terminal V3 loop peptides bind	8.92 ± 1.8	penetrate cells less efficiently than NYAD-1	0	
CC[C@H](C)[C@H](NC(C)=O)C(=O)N[C@@H](CO)C(=O)N[C@@H](Cc1ccccc1)C(=O)N[C@]1(C)CCCCCCC=CCCC[C@@](C)(C(=O)N[C@@H](CCC(=O)O)C(=O)N[C@@H](CC(=O)O)C(N)=O)NC(=O)[C@H](Cc2ccc(O)cc2)NC(=O)[C@H](Cc2ccc(O)cc2)NC(=O)[C@H](CC(=O)O)NC(=O)[C@H](CC(C)C)NC(=O)[C@H](CC(C)C)NC(=O)[C@H](CCC(=O)O)NC1=O [NYAD-66] (Ac-ISF[R8]ELLDYY[S5]ED-NH2; staple 4-11)	> 115	reduced the extent of CA assembly in a dose-dependent manner	166 ± 18.91	modest accumulation of cell-associated Pr55^Gag				significantly delayed	strongly inhibited replication of WT NL4-3 in PBMC	showed some antiviral activity against the V120Q/A327P mutant			penetrate cells less efficiently than NYAD-1	0	reduction in infectivity of virions produced from treated cells (HIV-1 pNL4-3 (WT); 293T producer cells treated with 50 μM peptide for two days, RT-normalized virus on TZM-bl, luciferase): four-fold; fold reduction of virus infectivity, WT (WT HIV-1 (NL4-3); [10]): around 3 fold; fold reduction of virus infectivity, V120Q/A327P double mutant [4, 10]: less than 2 fold

— publication PMC3842668, “Dual-acting stapled peptides target both HIV-1 entry and assembly” (Retrovirology, 2013)
